Key:
Assay type in all cases: physicochemical
[1] = Maximum solubility in hydrophilic excipients, determined by HPLC
Protocol: In order to produce an aqueous-glycolic gel containing an amount of ethanol of less than 30%, in which compound A is solubilized, pre-formulation studies were carried out in order to reveal the excipients enabling good solubilization and also good stability of the active agent. • (1) List of the hydrophilic excipients or mixture of hydrophilic excipients in which maximum solubility was determined by HPLC: […]

[2] = Stability of compound A in its principal solvents and cosolvents, determined by HPLC
[3] = Tests introducing ST-cyclomethicone 5NF: recrystallization of compound A
Protocol: In order to obtain an acceptable feel for acne (non-greasy, non-tacky) while at the same time keeping good solubility of compound A in the formula, tests introducing ST-cyclomethicone 5 were carried out, in the knowledge that ST-cyclomethicone 5NF is a nonsolvent of compound A and that this addition may therefore cause recrystallization of compound A: […]

CC(C)(C)c1cc(-c2cc(-c3ccc(C(=O)O)cc3)ccc2OCCO)ccc1N1CCCC1 [Compound A, 3″-tert-butyl-4′-(2-hydroxyethoxy)-4″-pyrrolidin-1-yl[1,1′;3′,1″]terphenyl-4-carboxylic acid]
Maximum solubility as % ([1]; in Arlasolve DMI (Dimethyl Isosorbide)): 0.4%
Maximum solubility as % ([1]; in Benzyl Alcohol): 2.3880%
Maximum solubility as % ([1]; in Dipropylene Glycol Care (Dipropylene Glycol)): 0.4%
Maximum solubility as % ([1]; in Ethanol 95-96%): 0.92%
Maximum solubility as % ([1]; in Glycerine (Glycerin)): 0.002%
Maximum solubility as % ([1]; in Hexylene Glycol): 0.4%
Maximum solubility as % ([1]; in Hydrolite 5P (Pentylene glycol)): 0.482%
Maximum solubility as % ([1]; in PEG 400 (Peg-8)): 1.52%
Maximum solubility as % ([1]; in Pharmasolve (Methyl Pyrolidone)): 4.84%
Maximum solubility as % ([1]; in Phenoxetol (Phenoxyethanol)): 1.957%
Maximum solubility as % ([1]; in Propylene Glycol): 0.111%
Maximum solubility as % ([1]; in Transcutol (Ethoxy diglycol)): 4.17%
Solubility (in words) ([1]; in glycerine): virtually insoluble
Stability results ([2]; 0.001% in Hexylene Glycol): Unstable
Stability results ([2]; 0.005% in Ethanol 95-96%): Stable
Stability results ([2]; 0.005% in Ethanol 95-96%, listed as compound A): stable
Stability results ([2]; 0.01% in Benzyl Alcohol): Unstable
Stability results ([2]; 0.03% in Arlasolve DMI (Dimethyl Isosorbide)): Unstable
Stability results ([2]; 0.03% in Hydrolite 5P (Pentylene glycol)): Unstable
Stability results ([2]; 0.03% in Pharmasolve (Methyl Pyrolidone)): Unstable
Stability results ([2]; 0.03% in Transcutol (Ethoxy diglycol)): Unstable
Stability results ([2]; 0.05% in Phenoxetol (Phenoxyethanol)): Stable
Stability results ([2]; 0.05% in Phenoxetol (Phenoxyethanol), listed as compound A): stable
Stability results ([2]; 0.05% in Propylene Glycol, listed as COMPOUND A): Stable
Stability results ([2]; 0.05% in Propylene Glycol, listed as compound A): stable
Stability results ([2]; 0.3% in Dipropylene Glycol Care (Dipropylene Glycol), listed as COMPOUND A): Stable
Stability results ([2]; 0.3% in Dipropylene Glycol Care (Dipropylene Glycol), listed as compound A): stable
Stability results ([2]; 0.3% in PEG 400 (Poly Ethylene Glycol)): Unstable
Recrystallization of COMPOUND A ([3]; formula with ST-Cyclomethicone 5NF 0%): No
Recrystallization of COMPOUND A ([3]; formula with ST-Cyclomethicone 5NF 2%): No
Recrystallization of COMPOUND A ([3]; formula with ST-Cyclomethicone 5NF 5%): Re-
Solubility (in words) ([3]; in ST-cyclomethicone 5NF): nonsolvent

Reference: patent US9498465B2, “Topical compositions in the form of a gel containing a particular solubilized retinoid” (GALDERMA RESEARCH & DEVELOPMENT, priority 2012, dated 2016)
